The Ki is a measure of affinity in units of concentration, obtained from inhibition or displacement.

The results in this text go back to patent publication US4446315A, “Adenosine 5'-triphosphate-4-carboxamide-ribofuranosylthiazole” (The United States of America as represented by the …, priority 1982, dated 1984).

Assay [1] in a line: Antitumor activity of the metabolite administered as such. The settings on record: compared with progenitor TR; initial experiments.
Assay [2] addresses bacterial IMP dehydrogenase. Description: Inhibition of bacterial IMP dehydrogenase. The format is biochemical. The note with it: chemically synthesized TAD; read-out: Ki against bacterial IMP dehydrogenase.
The subject of the next assay is P388 leukemic cells. The assay can be described thus: Cytotoxicity against P388 leukemic cells in culture. The format is cell-based. The settings on record: Mus musculus, read-out: Cytotoxicity Against P388 Leukemic Cells in Culture IC50 (median inhibitory concentration).

“Also recorded” adds a separate entry of the source. Read-outs that look alike come from different tables or passages of the source.

`NC(=O)c1csc([C@@H]2O[C@H](COP(=O)(O)OP(=O)(O)OC[C@H]3O[C@@H](n4cnc5c(N)ncnc54)[C@H](O)[C@@H]3O)[C@@H](O)[C@H]2O)n1` [TAD, adenosine 5'-(trihydrogen diphosphate) 5'→5'-ester with 4-carboxamide-2-β-D-ribofuranosylthiazole]: the Antitumor activity result in assay [1] was “active when administered as such; also recorded: superior to that of its progenitor”. In assay [2], the Ki amounted to 3.4 µM. Moreover, the IC50 was 3.5 µM in the assay on P388 leukemic cells (P388, chemically synthesized TAD) and 2.5 µM with P388 leukemic cells (P388, enzymatically (biologically) synthesized TAD).
